The results in this text go back to US20100247579A1, “THERAPEUTIC AGENT FOR CANCER” (priority 2007, published 2010).

Holding throughout (format): in vivo, C57BL/6 mice
For assay [1], the system named is CD3e^+ T cells in blood. Kind of assay: T cell count in blood after CPA and T cell transfer, syngeneic tumor model C57BL/6-hB16F10. The following applies: day 6 after cell administration; group A defined as 100%; CPA 100 mg/kg i.p. day 4. On the procedure:
Evaluation of the lymphocyte count was effected by measuring the leukocyte count and the T cell count contained in the blood sample collected from the mouse tail vein. A volume of 22 μL of the blood was collected into a 0.5 mL tube containing 3 μL of heparin sodium (manufactured by Mitsubishi Wellpharma Inc.) per one mouse. An aliquote of 15 μL was taken from the blood sample, added to a mixed solution of 14 μL of Flow-Count (manufactured by Beckman Coulter Inc.) and 0.5 μL of hamster anti-mouse CD3e FITC (manufactured by eBioscience Inc.), and the mixture was treated for 15 minutes. Thereafter, the erythrocytes were hemolysed with a low isotonic solution, and subjected to flow cytometry to calculate the rate of T cells and the recovery rate of T cells, with the CD3e^+ cells being as the T cells. […] […] Moreover, the recovery rate of the T cells was determined to be a ratio of the number of the T cells on day 4 after the cell administration relative to the number of the T cells immediately before the cell administration.
In a similar manner to item (5) of Example 1, expansion of mouse T cell population was carried out.
Using the mouse T cells which had been expanded in item (1) of Example 11, separation of the naive T-like cells and the effector T-like cells was performed similarly to item (2) of Example 10. […]

The test system of assay [2] is hB16F10. Kind of assay: Antitumor activity (tumor size) after CPA and T cell transfer, syngeneic tumor model C57BL/6-hB16F10. The following applies: day 11 after tumor inoculation; CPA 100 mg/kg i.p. day 4.
Method: On the next day, individual mouse T cells prepared in item (2) of Example 11 was prepared with an RPMI 1640 medium to a density of 3.75×10^8 cells/mL, and the naive T-like cells and the effector T-like cells in 0.2 mL each were administered via the tail veins to each individual of group C and group D, respectively. In addition, the RPMI 1640 medium was administered to each individual of group A and group B in 0.2 mL each via the tail veins.
However, the tumor size was determined on days 11 and 13 after the tumor inoculation.
In assay [3] the test system is CD3e^+ T cells in blood. The experiment in a line: T cell count in blood after MMC and T cell transfer, syngeneic tumor model C57BL/6-hB16F10. As for the experimental part: In a similar manner to item (5) of Example 1, expansion of mouse T cells was carried out, however, the human CH-296 was not used, and the cells on day 6 of culture were collected. The cells were subjected to each experiment.
The cells obtained in item (1) of Example 10 were collected to take a required amount, and centrifuged at 500×g for 5 minutes at room temperature to remove the supernatant. Thereafter, the cells were suspended in DPBS containing 0.5% BSA and 2 mM disodium ethylenediaminetetraacetate (hereinafter referred to as 0.5% BSA/DPBS) to a density of 1.11×10^8 cells/mL. CD62L ([…]) microbeads (mouse) (manufactured by MACS) were added to the cell solution in 10 μL per cell count of 1×10^7 cells, and incubated for 15 minutes while stirring sometimes in a dark place at 4° C. Then, to the cell solution was added 1 mL of 0.5% BSA/DPBS per cell count of 1×10^7 cells, and the mixture was centrifuged at 500×g for 5 minutes at room temperature to remove the supernatant. After that, 0.5 mL of 0.5% BSA/DPBS per cell count of 1×10^8 cells was added thereto, suspended sufficiently, and allowed to stand on ice to afford a CD62L microbeads target cell solution. An LS column (manufactured by MACS, hereinafter referred to as a separation column) was provided to a VarioMACS (trademark) separator (manufactured by MACS, hereinafter referred to as a separation apparatus) and rinsed with 3 mL of 0.5% BSA/DPBS. The CD62L microbeads-labeled cell solution was added to the column for elution and further rinsed with 9 mL of 0.5% BSA/DPBS to collect an eluate, thereby obtaining CD62L^− cells as effector T-like cells. The column was removed from the separation apparatus, and CD62L^+ cells were collected as naive T-like cells by extrusion with a plunger attached to the separation apparatus after addition of 5 mL of a buffer.
Hair removal of about 9 cm^2 in the right inguina of 7-week old female C57BL/6 mice was effected under anesthesia, and 0.1 mL of hB16F10 suspended in an RPMI 1640 medium to a density of 4×10^6 cells/mL was subcutaneously administered to the mice. […]

Assay [4] relates to hB16F10. The experiment in a line: Antitumor activity (tumor size) after MMC and T cell transfer, syngeneic tumor model C57BL/6-hB16F10. The following applies: day 14 after tumor inoculation; product of major and minor diameter. As for the experimental part: Hair removal of about 9 cm^2 in the right inguina of 7-week old female C57BL/6 mice was effected under anesthesia, and 0.1 mL of hB16F10 suspended in an RPMI 1640 medium to a density of 4×10^6 cells/mL was subcutaneously administered to the mice. Thereafter, group settings were carried out as follows. Group A was set to an untreated group, group B was set to an MMC alone administration group, group C was set to a combinatorial MMC and naive T-like cell administration group, and group D was set to a combinatorial MMC and effector T-like cell administration group. On days 3 and 4 after tumor inoculation, 0.2 mL of a saline (manufactured by Otsuka Pharmaceutical Co., Ltd.) was intraperitoneally administered to group A and the MMC at a dose of 2 mg/kg was intraperitoneally administered to other groups. On day 6 after the tumor inoculation, individual mouse T cells prepared in item (2) of Example 10 were prepared with an RPMI 1640 medium to a density of 5×10^8 cells/mL. The naive T-like cells and the effector T-like cells in 0.2 mL each were respectively administered to each individual of group C and group D via the tail veins. […]
In order to assay the antitumor activity in the evaluation system performed in item (3) of Example 10, a tumor size in each individual on day 14 after the tumor inoculation was determined with an electronic caliper. […]

`O=P1(N(CCCl)CCCl)NCCCO1` (stereo not drawn) [CPA, cyclophosamide]: in the assay on CD3e^+ T cells in blood [1], the “Rate of T cells (%)” value amounted to 52.2%. Also, in the assay on hB16F10 [2], the “Tumor Size (mm^2) On day 11” value is 32.6 mm^2.

For the compound `CO[C@@]12[C@H](COC(N)=O)C3=C(C(=O)C(C)=C(N)C3=O)N1C[C@@H]1N[C@@H]12` [MMC, mitomycin C], the “Rate of T Cells On Day 4 after Cell Administration” value in the assay on CD3e^+ T cells in blood [3] (group A (untreated) defined as 100%, MMC 2 mg/kg i.p. days 3 and 4, cells via tail vein day 6) stood at 118.2%. Further, the “Rate of T Cells Immediately before Cell Administration” value with CD3e^+ T cells in blood [3] (group A (untreated) defined as 100%, MMC 2 mg/kg i.p. on days 3 and 4 after tumor inoculation) was 84.1%. Further, the “Recovery Rate of T Cells” value in the assay on CD3e^+ T cells in blood [3] (ratio of T cell number on day 4 after cell administration to number immediately before) turned out to be 1.4. In addition, the “Tumor Size (mm^2)” value in the assay on hB16F10 [4] is recorded as 82.5 mm^2.
